According to patent US7452908B2, “Amide derivatives” (Banyu Pharmaceutical Co., Ltd., priority 1999, dated 2008):

What was measured:
[1] = target: T1, airway M3 receptor in isolated rat trachea (Rattus norvegicus, UniProt P08483); test: Antagonism to the airway M3 receptor in isolated rat trachea (carbachol-induced contraction); type: cell-based; conditions: for Kb: isolated rat trachea, shift of carbachol dose-response curve; for Selectivity M2/M3: ratio of KB right atrium M2 to KB trachea M3
T1 construct: from tissue; host or cells: trachea of male SD rats
T1 sequence (P08483 whole entry): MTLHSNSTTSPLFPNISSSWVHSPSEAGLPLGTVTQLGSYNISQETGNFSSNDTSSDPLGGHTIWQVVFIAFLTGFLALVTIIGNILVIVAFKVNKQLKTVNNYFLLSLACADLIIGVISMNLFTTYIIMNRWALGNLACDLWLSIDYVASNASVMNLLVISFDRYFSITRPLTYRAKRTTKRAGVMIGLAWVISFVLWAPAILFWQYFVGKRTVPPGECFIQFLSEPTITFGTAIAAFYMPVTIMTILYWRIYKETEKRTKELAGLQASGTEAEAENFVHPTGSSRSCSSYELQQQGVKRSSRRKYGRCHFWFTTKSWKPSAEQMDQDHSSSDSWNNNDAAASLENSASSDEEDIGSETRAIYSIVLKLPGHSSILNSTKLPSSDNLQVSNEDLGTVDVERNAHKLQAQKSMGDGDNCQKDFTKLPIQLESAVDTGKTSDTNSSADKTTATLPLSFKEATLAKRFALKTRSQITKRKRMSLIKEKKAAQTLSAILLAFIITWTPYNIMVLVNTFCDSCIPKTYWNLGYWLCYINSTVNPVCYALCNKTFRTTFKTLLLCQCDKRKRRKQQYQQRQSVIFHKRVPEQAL
Description: The test was performed according to a conventional method. Male SD strain rats (weighing 300-500 g) were killed by exsanguination, and from each of them the trachea was isolated. Annular segments (2 mm wide) were cut out from the trachea and cut transversely at the anterior cartilage part to make open ring preparation. Each preparation was suspended in a Magnus tube filled with 5 ml of Krebs-Henseleit solution (gassed with 95% O2-5% CO2 and kept at 32° C.) with an initial tension of 1.0 g and a resting tension of 0.6 g. The tension of the preparation was recorded isometrically. After being equilibrated for an hour, the preparation was made to contract twice by treatment with 10^−4 M carbachol, and the second contraction induced by carbachol was used as the reference contraction. After washing the preparation with fresh solution to restore it to the base line, a test compound was administered thereto (or no treatment was given). Ten minutes later, carbachol (10^−8 to 10^−3 M) was cumulatively administered in three-fold increasing doses to obtain a dose-response curve. The dose-responsecurve was plotted by expressing responses as percentages based on the reference contraction of the preparation as 100%. The antagonistic potency (KB value) of the test compound was determined from the degree of shift of the dose-responsecurve attributable to the treatment with the test compound.

M1 receptor = target: T2, M1 receptor (Rattus norvegicus, UniProt P08482); test: Antagonism to M1 receptor in vivo: McNeil-A-343-induced vasopressor reaction in cervical vertebrae-separated rats; conditions: iv, McNeil-A-343 (0.3 mg/kg) 5 minutes after test compound
T2 construct: from tissue; host or cells: whole animal, male SD rats (in vivo)
T2 sequence (P08482 1-460): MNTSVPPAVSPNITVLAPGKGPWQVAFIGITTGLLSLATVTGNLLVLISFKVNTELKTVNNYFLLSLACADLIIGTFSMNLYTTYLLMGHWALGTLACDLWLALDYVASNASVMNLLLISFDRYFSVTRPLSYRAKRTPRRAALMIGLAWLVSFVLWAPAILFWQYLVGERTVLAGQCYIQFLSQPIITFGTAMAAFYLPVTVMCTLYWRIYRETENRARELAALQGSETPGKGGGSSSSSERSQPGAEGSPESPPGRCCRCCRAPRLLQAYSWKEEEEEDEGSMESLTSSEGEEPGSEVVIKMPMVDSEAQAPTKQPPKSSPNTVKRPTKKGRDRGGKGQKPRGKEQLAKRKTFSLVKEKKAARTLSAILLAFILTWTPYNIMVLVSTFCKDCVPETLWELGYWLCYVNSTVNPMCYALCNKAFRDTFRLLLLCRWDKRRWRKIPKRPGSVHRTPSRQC
Description: Male SD strain rats (weighing 300-500 g) were anesthetized with intraperitoneal administration of pentobarbital (50 mg/kg). Each rat's airway was cannulated by laryngotomy. Also by femoral incision, femoral artery and vein were isolated each and cannulated, which were used as routes for heart rate counting and chemical administration, respectively. Using a pulmotor for small animals (Type 7025, Ugo Basile Co.), artificial respiration was conducted under the conditions of ventilation rate of 6 ml/kg per breath and respiration rate of 90 breaths/min. The heart rate and blood pressure variations were measured with a heart rate counter (AT-601 G, Nippon Koden Co.) and a tonometer (AP-641G, Nippon Koden Co.), via a pressure transducer (DX-312, Nippon Koden Co.). After the blood pressure was stabilized, the cervical vertebrae was separated with an injection needle pricked from the occipital region. […] Five (5) minutes thereafter, McNeil-A-343 (0.3 mg/kg) was intravenously administered, and whereby induced hypertension variation was recorded. In this experiment one-dose evaluation per one animal was conducted. The inhibitory effect (inhibition ratio) of the test compound on the McNeil-A-343-induced vasopressor reaction was determined by the following equation: […]

M2 receptor = target: T3, M2 receptor (Rattus norvegicus, UniProt P10980); test: Antagonism to M2 receptor in vivo: acetylcholine-induced bradycardia reaction in rats; conditions: iv, acetylcholine (10 μg/kg) 5 minutes after test compound
T3 construct: from tissue; host or cells: whole animal, male SD rats (in vivo)
T3 sequence (P10980 1-466): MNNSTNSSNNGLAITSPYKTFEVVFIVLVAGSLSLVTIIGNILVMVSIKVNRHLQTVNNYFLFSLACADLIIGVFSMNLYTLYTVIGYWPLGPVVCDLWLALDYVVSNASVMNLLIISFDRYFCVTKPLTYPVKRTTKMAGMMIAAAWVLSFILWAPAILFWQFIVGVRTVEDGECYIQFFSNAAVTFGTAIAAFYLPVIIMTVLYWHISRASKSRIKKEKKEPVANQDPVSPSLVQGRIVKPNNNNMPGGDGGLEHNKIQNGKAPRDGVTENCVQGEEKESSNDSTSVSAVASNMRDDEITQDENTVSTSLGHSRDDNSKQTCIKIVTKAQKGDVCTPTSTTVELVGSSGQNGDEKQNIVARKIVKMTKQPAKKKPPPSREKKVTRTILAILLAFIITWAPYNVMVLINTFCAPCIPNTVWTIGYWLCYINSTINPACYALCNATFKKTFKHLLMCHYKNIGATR
Description: Male SD strain rats (weighing 300-500 g) were anesthetized with urethane (1 g/kg) and α-chloralose (50 mg/kg) administered intraperitoneally. […] In this experiment, one-dosage evaluation was conducted per one animal of the tested rats.

M3 receptor = target: T4, M3 receptor (Canis lupus familiaris, UniProt A0A8I3N190); test: Antagonism to M3 receptor: bronchodilation in anesthetized dogs (methacholine provocation test); type: in vivo, beagle dogs; conditions: inhalation of 1 mg/ml for 10 minutes, methacholine threshold four hours after administration
T4 construct: from tissue; host or cells: whole animal, male beagle dogs (in vivo, airway)
T4 sequence (A0A8I3N190 1-590): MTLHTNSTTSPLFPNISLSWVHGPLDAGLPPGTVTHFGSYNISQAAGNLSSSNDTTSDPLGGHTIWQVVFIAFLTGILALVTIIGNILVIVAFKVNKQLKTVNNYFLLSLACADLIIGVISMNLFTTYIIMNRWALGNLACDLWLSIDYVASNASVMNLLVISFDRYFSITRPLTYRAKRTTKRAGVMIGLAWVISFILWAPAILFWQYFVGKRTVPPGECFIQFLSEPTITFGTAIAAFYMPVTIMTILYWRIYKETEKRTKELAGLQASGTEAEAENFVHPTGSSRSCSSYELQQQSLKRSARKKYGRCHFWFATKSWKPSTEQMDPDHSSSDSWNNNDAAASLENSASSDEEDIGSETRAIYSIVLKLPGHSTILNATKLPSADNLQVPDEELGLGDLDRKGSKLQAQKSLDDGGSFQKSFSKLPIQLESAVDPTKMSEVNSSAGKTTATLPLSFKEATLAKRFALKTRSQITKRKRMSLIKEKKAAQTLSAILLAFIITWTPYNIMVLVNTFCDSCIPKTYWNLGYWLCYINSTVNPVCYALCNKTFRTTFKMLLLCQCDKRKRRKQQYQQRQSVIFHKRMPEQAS
Description: The bronchodilation action of inhaled test compound was evaluated by measuring the compounds' inhibitory action on respiratory resistance-increasing reaction induced by a methacholine provocation test. For the experiment, 12 to 36 months old male beagle dogs (weighing 10-15 kg) were used. After being anesthetized by intravenous pentobarbital administration (30 mg/kg), the dogs were intubated cannulae in their trachea. After their respiration became stable, the cannulae were connected with Astograph (TCK-6100H, Chest) and a methacholine provocation test by 3 Hz oscillation method was conducted. […] The methacholine concentration at which the respiratory resistance increased to twice the initial value was recorded as the methacholine reaction threshold value. Before evaluating the test compounds, the methacholine reaction threshold value^1) under no drug treatment was measured at least twice at a week's interval, to select the dogs showing reproducible reaction.
The inhaling administration of each test compound (1 mg/ml) was conducted for 10 minutes under pentobarbital anesthetization (30 mg/kg, i.v.), with the nebulizer in the Astograph. […] The bronchodilator activity (shift value) of each tested compound was determined according to the following equation: […]

Row | SMILES | Kb [1] [nM] | Selectivity M2/M3 [1] [times] | ED50 (M1 receptor) [mg/kg] | ED50 (M2 receptor) [mg/kg] | Shift (fold) Airway constriction M3 (M3 receptor) [fold]
1 | CC[N+]1(CC)CCC[C@H](CNC(=O)[C@H]2CCCN2C(=O)[C@@H]2C[C@@H](O)CN2C(=O)CC(c2ccccc2)(c2ccccc2)c2ccccc2)C1.[Cl-] [Example 133, (3R)-1,1-diethyl-3-({({(2R)-1-({(2S,4R)-4-hydroxy-1-(3,3,3-triphenylpropanoyl)-2-pyrrolidinyl}carbonyl)-2-pyrrolidinyl}carbonyl)amino}methyl)piperidinium chloride] | 0.71 | 58 | > 0.3 | 0.114 | 20.2
2 | O=C(CCNC(=O)CNC(=O)CC(c1ccccc1)(c1ccccc1)c1ccccc1)NC[C@H]1CCCN(CC2CCCCC2)C1 [Example 12, N-{2-(3-{((3R)-1-cyclohexylmethyl-3-piperidyl)methyl}amino-3-oxopropyl)amino-2-oxoethyl}-3,3,3-triphenyloropanamide] | 2.3 | 70 | > 3 | 1.55 | –
